In patent US12357591B2 (Nova Southeastern University, priority 2018, dated 2025):

Assays:
[1] = pH of 2 mL water as diffusion medium with pH-modifying excipients; type: physicochemical
in vitro [2] = assay: in vitro
Method: The volunteer was asked not to eat or drink any acidic, alkaline, or spicy food or beverages and to rinse their mouth before the collection of saliva. The saliva was collected into an ice-bathed beaker and then degased to remove air bubbles and then filtered through 0.45 μm membrane.
Aliquot samples were withdrawn at specific time intervals including 2, 4, 6, 10, 15, and 30 min.

in vitro [3] = details: for Papp at 90 min, 10 mg/mL: pig
Method: Frozen pig's heads were obtained from local abattoir. Then, they were defrosted at room temperature. The porcine mucosa were excised by dissecting the sublingual mucosa and removing the underlying connective tissue using a scalpel and fine tweezers using established surgical techniques. The excised mucosa were frozen on aluminum foil at −20° C. until used (<4 weeks).
The sublingual mucosa (floor of the mouth) excised from pigs were used as the diffusion membranes. Mcvilian buffer at various pH was used in the donor cell as a diffusion medium.
Before each experiment, the mucosal membranes were defrosted at room temperature and mounted between the donor and receptor chambers and clamped using a metal clamp. The receptor chamber that has a magnetic stirrer was filled with the diffusion medium before mounting the membranes and air bubbles were removed after mounting the membranes and before the experiment. The water bath was set at 37° C. for the circulating water in the jacketed Franz Cells. The mounted membranes were equilibrated with the diffusion medium for 30 min from both sides before the experiment and were checked for any leaks.
Aliquots were withdrawn from the receptor chamber using 6 inch-long needles (Popper & Sons. Inc, New Hyde Park, NYC) and 1 mL syringes at 5, 10, 15, 20, 30, 45, 60, 75, and 90 min. The withdrawn volumes were replaced with fresh medium.
Samples were transferred to HPLC vials for HPLC analysis according to USP Method.

[4] = Epinephrine permeability with alkalizing agent and penetration enhancer, Franz cells; type: in vitro ADME, porcine
Method: EpiBit solution with penetration enhancer and alkalizing agent was added to the donor chamber.

[5] = between pH 4 to 5, first 2 min
Method: Aliquot samples were withdrawn at specific time intervals including 2 (maximum expected time for sublingual administration), 4, 6, 10, 15, and 30 min.

[6] = cited from earlier work
[7] = 1.125% (w/v) in 2 mL water, With Epi (20 mg)
[8] = 1.125% (w/v) in 2 mL water, Without Epi
[9] = 1.875% (w/v) in 2 mL water, With Epi (20 mg)
[10] = 1.875% (w/v) in 2 mL water, Without Epi

For `O=C([O-])O.[Na+]` [Na Bicarbonate, sodium bicarbonate], which “pH Reading” value [1, 7] is on record?
Its value is 7.9 ± 0.1.

And the “pH Reading” value [1, 8]?
The value was 8.9 ± 0.1.

What about the “pH Reading” value [1, 9] of the same compound?
The value was 7.7 ± 0.0.

What about the “pH Reading” value [1, 10] of the same compound?
Its value is 8.5 ± 0.1.

What about the “pH Reading” value ([1]; 2.25% (w/v) in 2 mL water, With Epi (20 mg)) of the same compound?
Its value is 7.9 ± 0.1.

What about the “pH Reading” value ([1]; 2.25% (w/v) in 2 mL water, Without Epi) of the same compound?
The value was 8.6 ± 0.1.

What does the source list for `CNC[C@H](O)c1ccc(O)c(O)c1` [Epi, Epinephrine]?
recovery at 0 min, 5 mg/mL (in vitro [2]; male, human, human saliva): 100 ± 0.2%; recovery at 2 min, 5 mg/mL (in vitro [2]; male, human, human saliva): 96 ± 0.2%; recovery at 4 min, 5 mg/mL (in vitro [2]; male, human, human saliva): 96 ± 0.2%; recovery at 6 min, 5 mg/mL (in vitro [2]; male, human, human saliva): 95 ± 0.1%; recovery at 10 min, 5 mg/mL (in vitro [2]; male, human, human saliva): 95 ± 0.2%; recovery at 15 min, 5 mg/mL (in vitro [2]; male, human, human saliva): 92 ± 0.2%; recovery at 30 min, 5 mg/mL (in vitro [2]; male, human, human saliva): 84%; stability of Epi in human saliva (in vitro [2]; saliva pH and up to pH 8): stable in human saliva (saliva pH and up to pH 8) for sufficient time to allow for sublingual drug administration; AUC0-90 min (in vitro [3]; pH 5): 5169 ± 255 μg/cm^2/ min; J (influx) (in vitro [3]; pH 5): 0.4 ± 0.1 μg/cm^2/min; AUC0-90 min (in vitro [3]; pH 6): 6191 ± 756 μg/cm^2/ min; J (influx) (in vitro [3]; pH 6): 0.8 ± 0.2 μg/cm^2/min; AUC0-90 min (in vitro [3]; pH 6.8): 46562 ± 3450 μg/cm^2/ min; J (influx) (in vitro [3]; pH 6.8): 2.8 ± 0.2 μg/cm^2/min; AUC0-90 min (in vitro [3]; pH 7.4): 60099 ± 6576 μg/cm^2/ min; J (influx) (in vitro [3]; pH 7.4): 5.3 ± 0.2 μg/cm^2/min; AUC0-90 min (in vitro [3]; pH 8): 135689 ± 439 μg/cm^2/ min; J (influx) (in vitro [3]; pH 8): 30.9 ± 0.4 μg/cm^2/min; increase of Epi sublingual permeability (in vitro [3]; pH 8 compared to pH 6.8): about 11 fold; Papp at 90 min, 10 mg/mL (in vitro [3]; pH 5): 333 ×10⁻⁶ cm/s; Papp at 90 min, 10 mg/mL (in vitro [3]; pH 6): 667 ×10⁻⁶ cm/s; Papp at 90 min, 10 mg/mL (in vitro [3]; pH 6.8): 2330 ×10⁻⁶ cm/s; Papp at 90 min, 10 mg/mL (in vitro [3]; pH 7.4): 4330 ×10⁻⁶ cm/s; enhancement of Epi sublingual permeability ([4]; alkalizing agent (pH of diffusion medium around 8) with permeation enhancer like SDS): about 25 fold; enhancement of Epi sublingual permeability ([4]; alkalizing agent or permeation enhancer, each one alone): 10- to 11 fold; Epi loss [5]: 10-17%; optimal pH values for the stability of Epi in aqueous solution [6]: 3.0-3.8

For Na Citrate, which “pH Reading” value [1, 7] is on record?
The value was 5.0 ± 0.1.

What about the “pH Reading” value [1, 8] of the same compound?
The value was 9.4 ± 0.1.

And the “pH Reading” value [1, 9]?
Its value is 7.1 ± 0.1.

And the “pH Reading” value [1, 10]?
Its value is 9.8 ± 0.1.
